This note sets out measurements from ChEMBL document CHEMBL5625170, “Design, synthesis, and biological evaluation of novel penindolone derivatives as potential inhibitors of hemagglutinin-mediated membrane fusion” (Eur J Med Chem, 2023).

This test deals with Influenza A virus. Nature of the test: Anti-viral activity against Influenza A virus amantadine-resistant strain (A/Puerto Rico/8/34) infected in MDCK cells assessed as inhibition of virus cytopathic effect measured after 48 hrs by crystal violet staining based assay. In kind it is functional, organism-based. Particulars: A/Puerto Rico/8/34, MDCK.

Consider `CC(=O)c1cc(C)c(O)c(Cc2[nH]c3ccc(-c4ccc(C)cc4)cc3c2Cc2c(O)c(C)cc(C(C)=O)c2O)c1O`, for which the IC50 is 15.5 µM.

Regarding `CCOC(=O)C1=C[C@@H](OC(CC)CC)[C@H](NC(C)=O)[C@@H](N)C1` [OSELTAMIVIR], the IC50 came to 11.4 µM.

With `CC(=O)c1cc(C)c(O)c(Cc2[nH]c3cc(-c4cc(C(C)(C)C)cc(C(C)(C)C)c4)ccc3c2Cc2c(O)c(C)cc(C(C)=O)c2O)c1O`, the IC50 stood at 26.8 µM. For `CC(=O)c1cc(C)c(O)c(Cc2[nH]c3ccc(-c4ccc5ncccc5c4)cc3c2Cc2c(O)c(C)cc(C(C)=O)c2O)c1O` the value was 18.5 µM. For `CC(=O)c1cc(C)c(O)c(Cc2c(Cc3c(O)c(C)cc(C(C)=O)c3O)n(Cc3ccccc3)c3ccccc23)c1O` the value was more than 30 µM; for `COc1ccc2[nH]c(Cc3c(O)c(C)cc(C(C)=O)c3O)c(Cc3c(O)c(C)cc(C(C)=O)c3O)c2c1`, 15.9 µM. For `CC(=O)c1cc(C)c(O)c(Cc2[nH]c3cc(/C=C/c4ccccc4)ccc3c2Cc2c(O)c(C)cc(C(C)=O)c2O)c1O` the value was more than 30 µM. For `CC(=O)c1cc(C)c(O)c(Cc2[nH]c3cc(-c4ccc5cccnc5c4)ccc3c2Cc2c(O)c(C)cc(C(C)=O)c2O)c1O`, the IC50 is more than 30 µM.

Consider `COc1cccc(OC)c1-c1ccc2[nH]c(Cc3c(O)c(C)cc(C(C)=O)c3O)c(Cc3c(O)c(C)cc(C(C)=O)c3O)c2c1`, for which the IC50 was 21 µM. In the case of `CC(=O)c1cc(C)c(O)c(Cc2[nH]c3cc(-c4ccc5ccccc5c4)ccc3c2Cc2c(O)c(C)cc(C(C)=O)c2O)c1O` it was 26 µM; in that of `CC(=O)c1cc(C)c(O)c(Cc2[nH]c3ccc(-c4cc(C(C)(C)C)cc(C(C)(C)C)c4)cc3c2Cc2c(O)c(C)cc(C(C)=O)c2O)c1O`, more than 30 µM; in that of `CC(=O)c1cc(C)c(O)c(Cc2c(Cc3c(O)c(C)cc(C(C)=O)c3O)n(Cc3ccc(F)cc3)c3ccccc23)c1O`, more than 30 µM.

Regarding `CC(=O)c1cc(C)c(O)c(Cc2[nH]c3ccc(Br)cc3c2Cc2c(O)c(C)cc(C(C)=O)c2O)c1O`, the IC50 is 25.2 µM.

Turning to `C=CCn1c(Cc2c(O)c(C)cc(C(C)=O)c2O)c(Cc2c(O)c(C)cc(C(C)=O)c2O)c2ccccc21`, the IC50 is more than 30 µM.

With `CC(=O)c1cc(C)c(O)c(Cc2[nH]c3ccc(-c4cc(C)cc(C)c4)cc3c2Cc2c(O)c(C)cc(C(C)=O)c2O)c1O`, the IC50 was determined as 13.5 µM. For `CC(=O)c1cc(C)c(O)c(Cc2[nH]c3ccc(-c4ccccc4F)cc3c2Cc2c(O)c(C)cc(C(C)=O)c2O)c1O`, the IC50 is more than 30 µM.

For `CC(=O)c1cc(C)c(O)c(Cc2[nH]c3cc(-c4cc(C)cc(C)c4)ccc3c2Cc2c(O)c(C)cc(C(C)=O)c2O)c1O`, the IC50 stood at 10.1 µM. In the case of `CC(=O)c1cc(C)c(O)c(Cc2[nH]c3cc(-c4csc5ccccc45)ccc3c2Cc2c(O)c(C)cc(C(C)=O)c2O)c1O` it was 20.9 µM.

Take `CC(=O)c1cc(C)c(O)c(Cc2[nH]c3cc(C)ccc3c2Cc2c(O)c(C)cc(C(C)=O)c2O)c1O`: the IC50 turned out to be 15.1 µM.

Regarding `CC(=O)c1cc(C)c(O)c(Cc2c(Cc3c(O)c(C)cc(C(C)=O)c3O)n(Cc3ccc(Cl)cc3)c3ccccc23)c1O`, the IC50 was more than 30 µM. For `CC(=O)c1cc(C)c(O)c(Cc2[nH]c3ccc(-c4ccc(C(F)(F)F)cc4)cc3c2Cc2c(O)c(C)cc(C(C)=O)c2O)c1O` the value was 21.9 µM. For `CC(=O)c1cc(C)c(O)c(Cc2[nH]c3ccc(-c4ccc5c(c4)OCCO5)cc3c2Cc2c(O)c(C)cc(C(C)=O)c2O)c1O` the value was 13 µM.

As for `CC(=O)c1cc(C)c(O)c(Cc2[nH]c3cc(-c4cccc(O)c4)ccc3c2Cc2c(O)c(C)cc(C(C)=O)c2O)c1O`, the IC50 was more than 30 µM. For `CC(=O)c1cc(C)c(O)c(Cc2[nH]c3ccc(-c4cc(C(F)(F)F)cc(C(F)(F)F)c4)cc3c2Cc2c(O)c(C)cc(C(C)=O)c2O)c1O` the value was more than 30 µM; for `CC(=O)c1cc(C)c(O)c(Cc2[nH]c3ccc(F)cc3c2Cc2c(O)c(C)cc(C(C)=O)c2O)c1O`, more than 30 µM. For `CC(=O)c1cc(C)c(O)c(Cc2[nH]c3ccc(-c4c5ccccc5c(-c5ccccc5)c5ccccc45)cc3c2Cc2c(O)c(C)cc(C(C)=O)c2O)c1O` the value was more than 30 µM.
